According to publication PMC6337497 (International Journal of Molecular Sciences, 2018):
“Also recorded” adds a separate entry of the source.

Columns and labels:
PC3 cells [1] = assay: MTT cell viability assay, PC3; type: cell-based, Human; conditions: for GI50: 48 h treatment, MTT
Protocol: (§1) Human prostate cancer PC3 cells (CRL 1435, ATCC, Manassas, VA, USA) were grown in Ham’s F12 nutrient medium, human prostate cancer DU145 cells (HTB-81, ATCC, Manassas, VA, USA) in RPMI 1640 medium and human colorectal carcinoma HCT116 cells (CCL-247, ATCC, Manassas, VA, USA) in IMDM medium. All media (Biowest, Nuaillé, France) were supplemented with 10% Foetal Bovine Serum (Gibco-Thermo Fisher Scientific, Waltham, MA, USA), L-glutamine, penicillin, and streptomycin (Euroclone, Milan, Italy), and grown at 37 °C in a humidified 5% CO2 atmosphere.
(§2) DMSO was used as control.
(§3) The inhibition of cell proliferation was measured by colorimetric MTT assay and the concentration at which cellular growth is inhibited by 50% (GI50) was determined. Briefly, cells were seeded into 96-well plates at a density of 2000 cells/well. The following day, cells were treated with the indicated compounds and analyzed for cell viability after 48 h. 5 mg/mL thiazolyl blue tetrazolium bromide (Sigma-Aldrich, St. Louis, MO, USA) was added to each well at a final concentration of 0.5 mg/mL and the plates were incubated at 37 °C for 2 h. Medium containing unconverted MTT was removed and 100 µL MTT solvent (4 mM HCl, 0.1% NP-40 in isopropyl alcohol) was added to each well. The plate was gently rotated on an orbital shaker in the dark for 15 min, before the measurements of absorbance at 570 nm. The viability of untreated cells was arbitrarily set at 100%.

DU145 cells [2] = assay: MTT cell viability assay, DU145; type: cell-based, Human; conditions: for GI50: 48 h treatment, MTT
Protocol: as §1, §2, §3

[3] = Kinetic stability in physiological conditions (UV-vis); type: physicochemical; conditions: after 24 h; PBS 0.01 M, NaCl 0.1M, pH = 7.4, 37 °C in darkness
Protocol: Figure 2 Stability and radical scavenging ability of K3F derivatives. (A) Residual % of K3F compounds vs. time (PBS 0.01 M, NaCl 0.1M, pH = 7.4, 37 °C in darkness). Residual % is calculated as At·100/A0, where At and A0 stand for absorbance at λmax at time t and time zero, respectively. (B) Percentage of inhibition of free DPPH radical ([DPPH^·] = 60 µM) in the presence of K3F compounds at increasing concentrations. Compounds concentration is expressed as molar ratio (compound/DPPH).
[…] 100 μM solutions of the ligands were prepared in 0.1 M Tris-HCl buffer (pH 7.4) with constant ionic strength (0.1 M NaNO3). Spectra were recorded every 30 min. All profiles were linearized by hyperbolic function (Equation (1)), which represents an empirical model that well describes drug decomposition or release. t/f% = at + b(1) where f% is the fraction of residual compound at time t (min) expressed as percentage referred to starting concentration at time zero.

PC3 cells [4] = assay: Cell cycle analysis (propidium iodide), PC3; type: cell-based, Human; conditions: for effect on cell cycle distribution (in words): PC3, 48 h at GI50 dose
Protocol: (§4) Cells were harvested after 48 h drug treatments and DNA distribution analysis of cells stained with propidium iodide solution (propidium iodide 25 µg/mL, Na-Citrate 3.4 mM, NaCl 9.65 mM, NP-40 0.03%) was performed by an Epics cytofluorimeter (Beckman Coulter Srl, Milan, Italy).

[5] = pH-metric titration, acid-base behavior (UV-vis, HypSpec); type: physicochemical; conditions: for pKa: aqueous solution diluted from a methanol mother solution, 25.0 °C, ionic strength 0.1 M NaNO3, read-out: pKa (keto-enol moiety)
Protocol: pH-metric titrations were performed in order to assess K3F acidity and predict the most abundant species in physiological condition. […] Overall protonation constants (βHL) were calculated from spectrophotometric data and optimized by means of HypSpec software (Supplementary Table S1). K3F23, K3F24 and K3F33 behaved as weak monoprotic acids, with a pKa value close to 8–8.50 associated to the keto-enol moiety. As for the other two ligands, namely K3F21 and K3F31, the acid-base equilibria were more complex in view of the polyprotic nature of the compounds, and three logβLH values were calculated. Species distribution curves (Supplementary Figure S2) provided reliable prediction of neutral and charged forms as function of pH, and consequently helped to envisage cell penetration and distribution in physiological conditions. […] As for K3F21 and K3F31, they behaved as less weak acids, in fact at pH 7 58% of K3F21 and 65% of K3F31 were found in the mono-dissociated negatively charged form (H2L^−), these percentages increased up to 74% and 86% respectively at pH 7.4. […] This outcome could be attributed to the stabilizing effect of the intramolecular hydrogen bond between the methoxyl and hydroxyl groups on the aromatic ring in the indissociated form of K3F21, which shifts the equilibrium in favor of the neutral species (H3L).
UV-vis spectrophotometric measurements were performed using Jasco V-570 spectrophotometer at 25.0 ± 0.1 °C in the 200–600 nm spectral range employing 1 cm quartz cells. Owing to the poor water solubility of the compounds, a methanol mother solution (5 × 10^−3 M) was diluted in water in order to give 50 µM solutions used for pH-metric titrations. The pH value was varied by adding small amounts of concentrated NaOH or HCl, 25 points in the pH range 3–10. A constant ionic strength of 0.1 M (NaNO3) was maintained in all the experiments. Each titration was performed at least three times. The overall protonation constants (logβLH) were evaluated from spectrophotometric data using the software HypSpec.

DU145 cells [6] = assay: Cell cycle analysis (propidium iodide), DU145; type: cell-based, Human; conditions: for effect on cell cycle distribution (in words): DU145, 48 h at GI50 dose
Protocol: as §4

DU145 cells [7] = assay: Cell migration (wound) assay, DU145; type: cell-based, Human; conditions: DU145, GI50 dose, 16 h
Protocol: (§5) 4 × 10^5 prostate cancer cells were plated in a 12-well plate. Approximately 24 h later, when the cells were 100% confluent, the monolayer was scratched using a 200 µL pipette tip. […] Three biological replicates were performed. Three random pictures were taken for each treated well per experiment and the areas of the wounds measured using ImageJ software. The percentage of wound recovery was then calculated using the formula: (final area-initial area)/initial area × 100%.

DU145 cells [8] = assay: Western blot of total cellular lysates, DU145; type: cell-based, Human; conditions: DU145, 48 h at GI50 dose
Protocol: (§8) Actin was used as loading control. Whole-cell protein extracts were prepared by resuspending cells into 1X SDS sample buffer (25 mM Tris-HCl pH 6.8, 1.5 mM EDTA, 20% glycerol, 2% SDS, 5% β-mercaptoethanol, 0.0025% Bromophenol blue). Equivalent amounts of cellular extracts were resolved by SDS-PAGE, electrotransferred to PVDF membrane (GE Healthcare Italia, Milan, Italy) and immunoblotted with the following primary antibodies: anti-phospo-H2AX (sc-101696), anti-p53 (DO1) (sc-126), anti-actin ([MUT]) (sc-1616) and anti-PARP (sc-8007) antibody from Santa Cruz Biotecnology, Inc, Dallas, TX, USA.; phospho-specific AKT antibody S473 (#9018) and T308 (#9275), Akt antibody (#9272 and #2967), phospho-specific ERK1/2 antibody T202/Y204 (#4370), ERK1/2 antibody (#4669), phospho-specific p38 MAPK antibody T180/Y182 (#9211), and p38 antibody (#9212) were purchased from Cell Signaling Technologies, Danvers, MA, USA. Membranes were blotted and scanned with Bio-Rad ChemiDocTM Touch Imaging System (Bio-Rad, Hercules, CA, USA), using chemiluminescent detection reagents from Cyanagen, Bologna, Italy (Westar ηC and Supernova HRP substrates for Western blotting).

PC3 cells [9] = assay: RT-qPCR gene transcription, PC3; type: cell-based, Human; conditions: PC3, 48 h at GI50 dose
Protocol: (§6) Data are presented as relative transcript levels, normalized with RPL21 housekeeping gene, with DMSO levels arbitrarily set at 1.
(§7) RNA was extracted from cells using RNeasy kit (Qiagen, Venlo, The Netherlands) and reversed transcribed with a Moloney murine leukemia virus reverse transcriptase (Promega, Madison, WI, USA). Quantitative real-time PCRs were performed using SsoAdvanced Universal SYBR Green Supermix (Bio-Rad, Hercules, CA, USA) on a Bio-Rad CFX Connect™ real-time PCR detection system. Primer sequences are available upon request. The housekeeping gene Rpl21 was used as a loading control. The relative fold change enrichments of real-time PCR samples were calculated with the formula 2^−(ΔΔCt), where −(ΔΔCt) = −[(Ct target − Ct Rpl21)treated − (Ct target − Ct Rpl21)DMSO].

PC3 cells [10] = assay: Cell migration (wound) assay, PC3; type: cell-based, Human; conditions: PC3, GI50 dose, 40 h
Protocol: as §5

DU145 cells [11] = assay: RT-qPCR gene transcription, DU145; type: cell-based, Human; conditions: DU145, 48 h at GI50 dose
Protocol: as §6, §7

PC3 cells [12] = assay: Western blot of total cellular lysates, PC3; type: cell-based, Human; conditions: PC3, 48 h at GI50 dose
Protocol: as §8

DU145 cells [13] = assay: K3F21/docetaxel co-administration, MTT and CompuSyn, DU145; type: cell-based, Human; conditions: DU145, DTX 20nM co-administered with K3F21, 48 h
Protocol: as §3
The ability of K3F21 and docetaxel to act synergistically with regard to growth inhibition was determined using CompuSyn software (ComboSyn, Inc., freely available at http://www.combosyn.com). Combination index (CI) and drug reduction index (DRI) were calculated for each concentration of drugs mixture, as indicated in the text. CI <1, =1 or >1 indicates synergism, additive effect, or antagonism, respectively. DRI >1 or <1 indicates favorable or not favorable dose-reduction.

[14] = Antioxidant activity (DPPH assay); conditions: [DPPH] = 60 µM, methanol, 120 min; read-out: IC50, DPPH radical scavenging
Protocol: The antioxidant activity of the compounds was evaluated in terms of hydrogen donating or radical scavenging ability, using the stable DPPH radical (1,1-diphenyl-2-picrylhydrazyl radical). A variable amount (15, 30, 45, 75, 105, and 150 µL) of a methanol solution (1.2 mM) of each compound was placed in a cuvette, and 3 mL of a 60 µM methanol solution of DPPH was added. Absorbance measurements were initiated immediately. The decrease in absorbance at 517 nm was monitored every minute up to 5′, then every 5′ up to 30′ and every 30′ until reaction reaches completion and absorbance stabilizes attaining a plateau after 120′. Methanol was used to zero the spectrophotometer. The absorbance of the DPPH radical without K3F compound, i.e., the control, was measured daily, and concentration was calculated applying Equation (2) (2) [DPPH^·]=A−1.006/10970
The percentage of inhibition (%In) of the DPPH radical by each sample was calculated according to the formula (3) %In=A0−At/A0×100 where A0 represents the absorbance of the control (DPPH radical) at time 0, while At refers to the absorbance of the mixture DPPH/antioxidant at time t (120 min). Values of absorbance were corrected taking into account volume dilution and all determinations were performed in triplicate.

## 2-((4Z,6E)-4-cinnamoyl-5-hydroxy-7-phenylhepta-4,6-dien-1-yl)isoindoline-1,3-dione [K3F33]
PC3 cells [1]
  GI50: 21.8 µM
DU145 cells [2]
  GI50: 23.3 µM
[3]
  residual percentage: ~60%
PC3 cells [4]
  effect on cell cycle distribution (in words): doubled the percentage of G2/M cells; also recorded: significantly increases SubG1 events
[5]; pH 7
  prevailing species: neutral one (HL)
DU145 cells [6]
  effect on cell cycle distribution (in words): ability to arrest cell cycle progression

## COc1cc(C=CC(=O)CC(=O)C=Cc2ccc(O)c(OC)c2)ccc1O [Curcumin, 1,7-bis [4-hydroxy-3-methoxyphenyl]-1,6-heptadiene-3,5-Dione, reference compound]
DU145 cells [7]
  cell migration (wound recovery): inhibitory effects on the migratory capacity
DU145 cells [8]
  ERK1/2 phosphorylation: increased
  phospho-p38 expression: no changes were observed
  γH2AX expression (marker of DNA damage): increased γH2AX in PC3 only
PC3 cells [1]; Homo sapiens, PC-3, 48 h
  GI50: 21 µM
DU145 cells [2]; Homo sapiens, DU-145
  GI50: 17.3 µM
PC3 cells [9]
  Noxa transcription: induced
  transcription of CDK inhibitors p21 and p27: increased
PC3 cells [10]
  cell migration (wound recovery): inhibitory effects on the migratory capacity
DU145 cells [11]
  Noxa transcription: induced
PC3 cells [4]; 48 h at GI50 concentration
  PC3 % CELLS G2/M: 37%
PC3 cells [4]
  effect on cell cycle distribution (in words): significantly increases SubG1 events
PC3 cells [12]
  ERK1/2 phosphorylation: increased
  phosphorylation of AKT in Ser473 and Thr308: inhibited
  γH2AX expression (marker of DNA damage): increased
DU145 cells [6]; 48 h at GI50 concentration
  DU145 % CELLS SubG1: 5%
DU145 cells [6]
  effect on cell cycle distribution (in words): mainly acts as a cytotoxic drug

## CC(=O)O[C@@]12CO[C@@H]1C[C@H](O)[C@@]1(C)C(=O)[C@H](O)C3=C(C)[C@@H](OC(=O)[C@H](O)[C@@H](NC(=O)OC(C)(C)C)c4ccccc4)C[C@@](O)([C@@H](OC(=O)c4ccccc4)[C@H]21)C3(C)C [Docetaxel, reference compound]
PC3 cells [1]; Homo sapiens, PC-3, PC3, MTT assay
  IC50: 0.03 µM
DU145 cells [2]; Homo sapiens, DU-145, DU145, MTT assay
  IC50: 0.017 µM
PC3 cells [4]
  effect on cell cycle distribution (in words): high cytotoxic effect associated to a robust increase in SubG1 events
DU145 cells [6]
  effect on cell cycle distribution (in words): high cytotoxic effect associated to a robust increase in SubG1 events
DU145 cells [13]
  DTX drug reduction index (DRI): 2.9

## COc1cccc(/C=C/C(=O)C(CCCN2C(=O)c3ccccc3C2=O)C(=O)/C=C/c2cccc(OC)c2)c1 [K3F23]
PC3 cells [1]; Homo sapiens, PC-3, 48 h
  GI50: 12.4 µM
DU145 cells [2]; Homo sapiens, DU-145
  GI50: 12.5 µM
PC3 cells [4]
  effect on cell cycle distribution (in words): doubled the percentage of G2/M cells
[5]
  pKa: 8 to 8.5
[5]; pH 7
  prevailing species: neutral one (HL)
DU145 cells [6]
  effect on cell cycle distribution (in words): both arrested the G2/M progression and induced cell death

## COc1cc(/C=C/C(=O)C(CCCN2C(=O)c3ccccc3C2=O)C(=O)/C=C/c2ccc(OC(C)=O)c(OC)c2)ccc1OC(C)=O [K3F24]
PC3 cells [1]; Homo sapiens, PC-3, 48 h
  GI50: 16.7 µM
DU145 cells [2]; Homo sapiens, DU-145
  GI50: 13.2 µM
PC3 cells [4]
  effect on cell cycle distribution (in words): doubled the percentage of G2/M cells
[5]
  pKa: 8 to 8.5
[5]; pH 7
  prevailing species: neutral one (HL)
DU145 cells [6]
  effect on cell cycle distribution (in words): ability to arrest cell cycle progression

## O=C(/C=C/c1ccc(O)cc1)C(CCCN1C(=O)c2ccccc2C1=O)C(=O)/C=C/c1ccc(O)cc1 [K3F31]
[14]
  IC50: 120 µM
[5]; pH 7
  mono-dissociated negatively charged form (H2L−): 65%
[5]; pH 7.4
  mono-dissociated negatively charged form (H2L−): 86%
